Consider 24 compounds from patent publication US8106055B2, “Substituted amide compounds” (Gruenenthal GmbH, priority 2007, dated 2012).

One test has as its target T1, human μ opiate receptor (Homo sapiens, UniProt P35372).
T1 construct: purchased PerkinElmer Life Sciences, Zaventem, Belgium RB-HOM; host or cells: CHO-K1 cells (membrane preparation)
Description: Affinity for the human μ opiate receptor ([3H]-naloxone displacement, CHO-K1 receptor membrane preparation, SPA). The class given is binding. The settings on record: test concentration of 1 μM; read-out: μ (binding on the μ opioid receptor, % inhibition). The essentials: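 Displacement of 1 nmol/l [3H]-naloxone measured by SPA counting after 90 min at room temperature, using human μ receptor CHO-K1 membrane preparation in Tris-HCl buffer with 0.06% BSA. Test substances at 1 μmol/l give % inhibition; dilution series yield IC50, then Ki (Cheng-Prusoff); non-specific binding with 100 μmol/l naloxone.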

Test [1] addresses T2, serotonin (5-HT) reuptake (Rattus norvegicus, UniProt P31652).
T2 construct: synaptosomes are freshly isolated from areas of the rat brain; from tissue; host or cells: rat brain synaptosomes (P2 fraction)
In words: Inhibition of serotonin (5HT) reuptake in synaptosomes from rat brain. The class given is biochemical. The settings on record: test concentration of 10 μM; read-out: 5-HT (inhibition of reuptake of serotonin, % inhibition). The essentials: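 Compounds screened at 10 μM and reported as percent inhibition of serotonin uptake. Uptake measured in a freshly prepared P2 synaptosomal fraction from rat brain.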

T2 sequence (P31652 whole entry): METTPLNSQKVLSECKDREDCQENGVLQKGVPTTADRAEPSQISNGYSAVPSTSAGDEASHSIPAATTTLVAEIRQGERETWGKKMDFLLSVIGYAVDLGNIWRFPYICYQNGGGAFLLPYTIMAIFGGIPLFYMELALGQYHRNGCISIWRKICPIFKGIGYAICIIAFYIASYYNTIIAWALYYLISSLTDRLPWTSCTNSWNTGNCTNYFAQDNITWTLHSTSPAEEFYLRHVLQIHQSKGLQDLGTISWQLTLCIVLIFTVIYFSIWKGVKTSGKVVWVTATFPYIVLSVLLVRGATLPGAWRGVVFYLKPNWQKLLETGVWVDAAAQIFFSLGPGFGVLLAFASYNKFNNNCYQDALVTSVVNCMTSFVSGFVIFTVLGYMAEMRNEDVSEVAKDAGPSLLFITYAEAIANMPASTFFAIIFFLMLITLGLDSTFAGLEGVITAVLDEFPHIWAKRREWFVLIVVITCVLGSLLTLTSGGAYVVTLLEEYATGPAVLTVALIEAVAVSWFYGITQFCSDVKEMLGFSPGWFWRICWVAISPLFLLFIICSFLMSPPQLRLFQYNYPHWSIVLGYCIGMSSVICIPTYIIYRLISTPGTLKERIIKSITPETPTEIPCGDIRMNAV
T1 sequence (P35372 whole entry): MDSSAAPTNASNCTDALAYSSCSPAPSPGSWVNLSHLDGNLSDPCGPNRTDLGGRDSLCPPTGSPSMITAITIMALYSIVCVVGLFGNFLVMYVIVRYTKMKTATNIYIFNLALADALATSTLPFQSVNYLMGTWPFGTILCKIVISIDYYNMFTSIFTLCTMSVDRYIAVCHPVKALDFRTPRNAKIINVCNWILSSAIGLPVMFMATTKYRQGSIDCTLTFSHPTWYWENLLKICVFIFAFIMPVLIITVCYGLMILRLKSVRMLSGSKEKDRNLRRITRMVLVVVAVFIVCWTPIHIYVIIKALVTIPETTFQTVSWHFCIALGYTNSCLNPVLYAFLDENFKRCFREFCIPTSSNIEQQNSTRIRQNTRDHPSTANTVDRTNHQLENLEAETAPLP

What is called inhibition is the drop in the measured response relative to a control, in per cent. Turning to `CN(C)C(c1cccs1)C1CCC(NC(=O)COC2CCCN(S(=O)(=O)c3ccccc3)C2)CC1` (stereo not drawn) [Example 42, N-(4-((dimethylamino)(thiophen-2-yl)methyl)cyclohexyl)-2-(1-(phenylsulfonyl)piperidin-3-yloxy)acetamide], the inhibition at 1 µM on human μ opiate receptor amounted to 96%. For the same compound, the inhibition at 10 µM in test [1] came out at 91%.

`CN(C)C(c1cccs1)C1CCC(CNC(=O)COC2CCN(S(=O)(=O)c3ccc(Cl)cc3)C2)CC1` (stereo not drawn) [Example 54, 2-(1-(4-chlorophenylsulfonyl)pyrrolidin-3-yloxy)-N-((4-((dimethylamino)(thiophen-2-yl)methyl)cyclohexyl)methyl)acetamide]: on human μ opiate receptor, the inhibition at 1 µM stood at 95%. In test [1], the inhibition at 10 µM was found to be 84%.

In the case of `CN(C)C(c1ccccc1)C1CCC(CNC(=O)COC2CCN(S(=O)(=O)c3ccc(Cl)cc3)C2)CC1` (stereo not drawn) [Example 81, 2-(1-(4-chlorophenylsulfonyl)pyrrolidin-3-yloxy)-N-((4-((dimethylamino)(phenyl)methyl)cyclohexyl)methyl)acetamide], the inhibition at 1 µM at human μ opiate receptor stood at 91%. The inhibition at 10 µM in test [1] came to 91%.

With `CN(C)C(c1cccs1)C1CCC(CCNC(=O)COCCN(C)S(=O)(=O)c2ccc(F)cc2)CC1` (stereo not drawn) [Example 85, N-(2-(4-((dimethylamino)(thiophen-2-yl)methyl)cyclohexyl)ethyl)-2-(2-(4-fluoro-N-methylphenylsulfonamido)ethoxy)acetamide], at human μ opiate receptor, the inhibition at 1 µM came to 92%. The inhibition at 10 µM in test [1] was 98%.

For the compound `COc1cc(C)c(S(=O)(=O)N2CCC(OCC(=O)NCC3CCC(C(c4ccccc4)N(C)C)CC3)C2)c(C)c1C` (stereo not drawn) [Example 44, N-((4-((dimethylamino)(phenyl)methyl)cyclohexyl)methyl)-2-(1-(4-methoxy-2,3,6-trimethylphenylsulfonyl)pyrrolidin-3-yloxy)acetamide], the inhibition at 1 µM at human μ opiate receptor was 96%. Moreover, the inhibition at 10 µM in test [1] was 94%.

Regarding `CN(C)C(c1cccs1)C1CCC(CCNC(=O)COC2CCN(S(=O)(=O)c3ccc(Cl)cc3)C2)CC1` (stereo not drawn) [Example 66, 2-(1-(4-chlorophenylsulfonyl)pyrrolidin-3-yloxy)-N-(2-(4-((dimethylamino)(thiophen-2-yl)methyl)cyclohexyl)ethyl)acetamide], at human μ opiate receptor, the inhibition at 1 µM stood at 93%. Besides, the inhibition at 10 µM in test [1] is 85%.

For `COc1ccc(S(=O)(=O)N2CCCCC2COCC(=O)NCC2CCC(C(c3cccs3)N(C)C)CC2)c(OC)c1` (stereo not drawn) [Example 49, 2-((1-(2,4-dimethoxyphenylsulfonyl)piperidin-2-yl)methoxy)-N-((4-((dimethylamino)(thiophen-2-yl)methyl)cyclohexyl)methyl)acetamide], on human μ opiate receptor, the inhibition at 1 µM stood at 96%. In addition, the inhibition at 10 µM in test [1] came out at 86%.

As to `CN(C)C(c1cccs1)C1CCC(CNC(=O)COCCN(C)S(=O)(=O)c2ccc(OC(F)(F)F)cc2)CC1` (stereo not drawn) [Example 93, N-((4-((dimethylamino)(thiophen-2-yl)methyl)cyclohexyl)methyl)-2-(2-(N-methyl-4-(trifluoromethoxy)phenylsulfonamido)ethoxy)acetamide], at human μ opiate receptor, the inhibition at 1 µM is 95%. Also, the inhibition at 10 µM in test [1] came out at 93%.

Take `COc1ccc(S(=O)(=O)N(C)CCOCC(=O)NC2CCC(C(c3cccs3)N(C)C)CC2)cc1` (stereo not drawn) [Example 73, N-(4-((dimethylamino)(thiophen-2-yl)methyl)cyclohexyl)-2-(2-(4-methoxy-N-methylphenylsulfonamido)ethoxy)acetamide]: the inhibition at 1 µM at human μ opiate receptor stood at 90%. For the same compound, in test [1], the inhibition at 10 µM turned out to be 77%.

As to `Cc1ccc(S(=O)(=O)N(C)CCOCC(=O)NCCC2CCC(C(c3cccs3)N(C)C)CC2)cc1` (stereo not drawn) [Example 82, N-(2-(4-((dimethylamino)(thiophen-2-yl)methyl)cyclohexyl)ethyl)-2-(2-(N,4-dimethylphenylsulfonamido)ethoxy)acetamide], the inhibition at 1 µM on human μ opiate receptor was determined as 95%. Besides, the inhibition at 10 µM in test [1] turned out to be 85%.

`CN(C)C(c1cccs1)C1CCC(CNC(=O)COC2CCN(S(=O)(=O)c3ccccc3)C2)CC1` (stereo not drawn) [Example 36, N-((4-((dimethylamino)(thiophen-2-yl)methyl)cyclohexyl)methyl)-2-(1-(phenylsulfonyl)pyrrolidin-3-yloxy)acetamide]: the inhibition at 1 µM on human μ opiate receptor stood at 96%. Besides, the inhibition at 10 µM in test [1] is 102%.

As for `COc1ccc(S(=O)(=O)N2CCC(OCC(=O)NCCC3CCC(C(c4cccs4)N(C)C)CC3)C2)cc1OC` (stereo not drawn) [Example 94, 2-(1-(3,4-dimethoxyphenylsulfonyl)pyrrolidin-3-yloxy)-N-(2-(4-((dimethylamino)(thiophen-2-yl)methyl)cyclohexyl)ethyl)acetamide], at human μ opiate receptor, the inhibition at 1 µM is 93%. Moreover, the inhibition at 10 µM in test [1] was determined as 88%.

On to `COc1cc(C)c(S(=O)(=O)N2CCN(CCOCC(=O)NC3CCC(C(c4cccc(F)c4)N(C)C)CC3)CC2)c(C)c1C` (stereo not drawn) [Example 76, N-(4-((dimethylamino)(3-fluorophenyl)methyl)cyclohexyl)-2-(2-(4-(4-methoxy-2,3,6-trimethylphenylsulfonyl)piperazin-1-yl)ethoxy)acetamide], for which, at human μ opiate receptor, the inhibition at 1 µM turned out to be 93%. In addition, in test [1], the inhibition at 10 µM was 96%.

Turning to `COc1cc(C)c(S(=O)(=O)N2CCC(OCC(=O)NC3CCC(C(c4cccs4)N(C)C)CC3)C2)c(C)c1C` (stereo not drawn) [Example 43, N-(4-((dimethylamino)(thiophen-2-yl)methyl)cyclohexyl)-2-(1-(4-methoxy-2,3,6-trimethylphenylsulfonyl)pyrrolidin-3-yloxy)acetamide], the inhibition at 1 µM at human μ opiate receptor was found to be 96%. The inhibition at 10 µM in test [1] was 90%.

Regarding `CN(C)C(c1cccs1)C1CCC(CNC(=O)COCCN(C)S(=O)(=O)c2cccc(C(F)(F)F)c2)CC1` (stereo not drawn) [Example 92, N-((4-((dimethylamino)(thiophen-2-yl)methyl)cyclohexyl)methyl)-2-(2-(N-methyl-3-(trifluoromethyl)phenylsulfonamido)ethoxy)acetamide], at human μ opiate receptor, the inhibition at 1 µM was found to be 94%. In test [1], the inhibition at 10 µM amounted to 86%.

With `CN(C)C(c1cccs1)C1CCC(CCNC(=O)COCCN(C)S(=O)(=O)c2ccc(OC(F)(F)F)cc2)CC1` (stereo not drawn) [Example 65, N-(2-(4-((dimethylamino)(thiophen-2-yl)methyl)cyclohexyl)ethyl)-2-(2-(N-methyl-4-(trifluoromethoxy)phenylsulfonamido)ethoxy)acetamide], at human μ opiate receptor, the inhibition at 1 µM turned out to be 96%. For the same compound, the inhibition at 10 µM in test [1] was 95%.

`CN(C)C(c1cccc(F)c1)C1CCC(CCNC(=O)COCCN(C)S(=O)(=O)c2c(Cl)cccc2Cl)CC1` (stereo not drawn) [Example 41, 2-(2-(2,6-dichloro-N-methylphenylsulfonamido)ethoxy)-N-(2-(4-((dimethylamino)(3-fluorophenyl)methyl)cyclohexyl)ethyl)acetamide]: at human μ opiate receptor, the inhibition at 1 µM turned out to be 96%. Moreover, the inhibition at 10 µM in test [1] was 79%.

Turning to `COc1ccc(S(=O)(=O)N2CCCCC2CCOCC(=O)NCC2CCC(C(c3cccs3)N(C)C)CC2)cc1` (stereo not drawn) [Example 90, N-((4-((dimethylamino)(thiophen-2-yl)methyl)cyclohexyl)methyl)-2-(2-(1-(4-methoxyphenylsulfonyl)piperidin-2-yl)ethoxy)acetamide], the inhibition at 1 µM on human μ opiate receptor came out at 95%. For the same compound, the inhibition at 10 µM in test [1] was found to be 94%.

As to `Cc1ccc(S(=O)(=O)N2CCC(OCC(=O)NCC3CCC(C(c4cccs4)N(C)C)CC3)C2)cc1` (stereo not drawn) [Example 68, N-((4-((dimethylamino)(thiophen-2-yl)methyl)cyclohexyl)methyl)-2-(1-tosylpyrrolidin-3-yloxy)acetamide], the inhibition at 1 µM at human μ opiate receptor was 93%. In test [1], the inhibition at 10 µM is 82%.

Take `COc1cc(C)c(S(=O)(=O)N(C)CCOCC(=O)NC2CCC(C(c3ccccc3)N(C)C)CC2)c(C)c1C` (stereo not drawn) [Example 80, N-(4-((dimethylamino) (phenyl)methyl)cyclohexyl)-2-(2-(4-methoxy-N,2,3,6-tetramethylphenylsulfonamido)ethoxy)acetamide]: the inhibition at 1 µM on human μ opiate receptor was 93%. The inhibition at 10 µM in test [1] came out at 84%.

As for `COc1cc(C)c(S(=O)(=O)N(C)CCOCC(=O)NCCC2CCC(C(c3cccs3)N(C)C)CC2)c(C)c1C` (stereo not drawn) [Example 52, N-(2-(4-((dimethylamino)(thiophen-2-yl)methyl)cyclohexyl)ethyl)-2-(2-(4-methoxy-N,2,3,6-tetramethylphenylsulfonamido)ethoxy)acetamide], at human μ opiate receptor, the inhibition at 1 µM came out at 95%. Further, the inhibition at 10 µM in test [1] amounted to 91%.

In the case of `Cc1cc(C)c(S(=O)(=O)N2CCC(OCC(=O)NC3CCC(C(c4ccccc4)N(C)C)CC3)C2)c(C)c1` (stereo not drawn) [Example 64, N-(4-((dimethylamino)(phenyl)methyl)cyclohexyl)-2-(1-(mesitylsulfonyl)pyrrolidin-3-yloxy)acetamide], the inhibition at 1 µM at human μ opiate receptor worked out at 94%. For the same compound, the inhibition at 10 µM in test [1] turned out to be 83%.

For the compound `COc1ccc(S(=O)(=O)N2Cc3ccccc3CC2COCC(=O)NC2CCC(C(c3cccs3)N(C)C)CC2)cc1` (stereo not drawn) [Example 47, N-(4-((dimethylamino)(thiophen-2-yl)methyl)cyclohexyl)-2-((2-(4-methoxyphenylsulfonyl)-1,2,3,4-tetrahydroisoquinolin-3-yl)methoxy)acetamide], the inhibition at 1 µM at human μ opiate receptor worked out at 96%. Also, the inhibition at 10 µM in test [1] came out at 98%.

For the compound `CN(C)C(c1cccc(F)c1)C1CCC(CNC(=O)COCCN(C)S(=O)(=O)c2c(Cl)cccc2Cl)CC1` (stereo not drawn) [Example 72, 2-(2-(2,6-dichloro-N-methylphenylsulfonamido)ethoxy)-N-((4-((dimethylamino)(3-fluorophenyl)methyl)cyclohexyl)methyl)acetamide], the inhibition at 1 µM on human μ opiate receptor turned out to be 92%. For the same compound, the inhibition at 10 µM in test [1] amounted to 84%.
